Laboratory results published in publication PMC8474110 (Journal of Medicinal Chemistry, 2021).
Where two headings read alike, the source gives them in different places.

Experiments:
HREC = assay: MTT viability test on HREC; format: cell-based; settings: Homo sapiens
Experimental: To dissect enantiomer contributions to antiangiogenic effects by (±)-1, compounds (+)-1 and (−)-1 were evaluated on HREC, an endothelial cell model of angiogenesis.[40] First, HREC viability was assessed by the 3-[4,5–dimethylthiazol-2-yl]-2,5-diphenyltetrazolium bromide (MTT) assay to verify the tolerability of the enantiomers, and different concentrations (1.0, 2.5, 5.0, 10.0, and 20.0 μM) of the compounds were tested for 24, 48, and 72 h. The IC50 values of (+)-1 and (−)-1 were calculated and compared to (±)-1 and its precursors (Table 3).
For cell viability assays, the 3-[4,5–dimethylthiazol-2-yl]-2,5-diphenyltetrazolium bromide (MTT assay, Chemicon, Temecula, CA) was used. The cells were seeded in 96-well plates at a density of 1.5 × 10^4 cells/well and were incubated overnight at 37 °C before the experiment. Afterward, the cells were treated for 24, 48, and 72 h in the presence of different concentrations (1.0, 2.5, 5.0, 10.0, 20.0 μM) of (±)-1, (+)-1, or (−)-1. After the treatments, the cells were incubated with MTT (5 mg/mL) for 3 h, and then 100 μL of dimethyl sulfoxide was added, and the absorbance was read in a plate reader (Synergy 2-BioTek) with a wavelength of 570 nm.

σ1 receptor = molecular target: T1, σ1 receptor (Cavia porcellus, UniProt Q60492); assay: σ1 receptor binding assay, [3H]-(+)-pentazocine, guinea pig brain membranes
T1 construct: from tissue; host or cells: guinea pig brain membranes
Experimental: (§1) The σ1 and σ2 receptor binding studies were performed according to the literature.[46],[47] Briefly, for the σ1 receptor binding assay, guinea pig brain membranes (400 μL, 500 μg protein) were incubated for 150 min at 37 °C with 3 nM of the radiolabeled ligand [^3H]-(+)-pentazocine (45 Ci/mmol) and increasing concentrations of tested compounds in 50 mM Tris-HCl (pH 7.4) to a total volume of 1 mL. […] Moreover, σ2 receptor binding assays were made according to the following protocol: the guinea pig brain membranes (300 μL, 360 μg protein) were incubated for 120 min at room temperature with 3 nM [^3H]-DTG (31 Ci/mmol) in the presence of 0.4 mM […] (+)-SKF10,047 to block the σ1 sites. The incubation was performed in 50 mM Tris-HCl (pH 8.0) to a total volume of 0.5 mL with increasing concentrations of each test compound. Nonspecific binding was evaluated in the presence of 5 μM DTG.
(§2) Each sample was filtered through Whatman GF/B glass fiber filters, which were presoaked for 1 h in a 0.5% poly(ethylenimine) solution, using a Millipore filter apparatus. Filters were washed twice with 4 mL of ice-cold buffer. Radioactivity was counted in 4 mL of “Ultima Gold MV” in a 1414 WinSpectral PerkinElmer Wallac or Beckman LS6500 scintillation counter. Inhibition constants (Ki values) were calculated using the EBDA/LIGAND program purchased from Elsevier/Biosoft.

human UM 92-1 cells = assay: Crystal violet proliferation assay in human UM 92-1 cells; format: cell-based; settings: for IC50: 48 h
Experimental: Then, actions on cell proliferation were examined by crystal violet staining (Figure 6).
HREC and human 92-1 cell (seeded 4 × 10^3 and grown for 24 h at optimum culture conditions) proliferation was measured using crystal violet staining after treatment in 96-well plates with the indicated concentrations of chemicals for an additional 48 h. Control cells received an equal volume of vehicle (DMSO). At the end of the treatment, each well was washed with phosphate-buffered saline (PBS). Following this, the cells were fixed (in 4% paraformaldehyde) and stained with crystal violet solution (0.5% in 20% methanol for HREC or 1% aqueous solution for 92-1 cells). Subsequently, the plate was washed with water and left to dry. Crystal violet staining was evaluated by measuring the absorbance at 570 nm or 590 nm, after crystal violet extraction with 10% acetic acid (at room temperature for 10 min), with a microplate reader with the plate reader (Synergy 2-BioTek). For quantification, each assay was carried out in triplicate.

[1] = Enzymatic stability (kinetics of enzymatic hydrolysis) in human plasma; format: in vitro ADME; settings: human plasma (80%), 37 °C; for half-life at 3.8 µM: pH 7.4, read-out: t1/2, enzymatic stability (converted)
Experimental: Enzymatic stability studies in rat and human plasma were performed for both the racemate and its enantiomers (Table 1). […] Considering the high stability of (±)-1 and its enantiomers in simulated physiological fluids and human plasma, these compounds could reach the target site without undergoing esterase metabolism.
Human plasma was purchased from 3H Biomedical (Uppsala, Sweden, Europe). Plasma aliquots (4 mL) were diluted with 0.02 M PBS (pH 7.4) to obtain a final volume of 5 mL containing 80% plasma. Studies were performed at 37 ± 0.5 °C using a shaking bath. Each experiment was started by adding a 10^–4 M drug stock solution (200 μL) to the preheated plasma. Hundred microliters of the thermostated medium was taken at various times, treated with cold methanol (500 μL) to precipitate plasma proteins, and centrifugated (5 min at 5000g). The supernatant was analyzed by HPLC to quantify the amount of the residual intact compound.

σ2 receptor = molecular target: T2, σ2 receptor (Cavia porcellus, UniProt H0V073); assay: σ2 receptor binding assay, [3H]-DTG, guinea pig brain membranes
T2 construct: the guinea pig brain membranes (300 μL, 360 μg protein) were incubated for 120 min at room temperature with 3 nM [^3H]-DTG; from tissue; host or cells: guinea pig brain membranes
T2 sequence (H0V073 1-176): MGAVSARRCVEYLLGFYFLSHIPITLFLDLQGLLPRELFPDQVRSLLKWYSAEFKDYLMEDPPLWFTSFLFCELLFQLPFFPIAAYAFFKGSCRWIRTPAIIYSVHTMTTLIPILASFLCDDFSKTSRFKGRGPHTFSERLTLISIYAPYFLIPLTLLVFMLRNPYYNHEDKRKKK
Experimental: as §1, §2

[2] = Chemical stability (kinetics of chemical hydrolysis) in buffer solutions; format: physicochemical; settings: for half-life at 9.1 µM: read-out: t1/2, chemical stability (converted)
Experimental: The chemical stability of (±)-1 was evaluated in buffer solutions at pH 1.3 and 7.4 (Table 1).
A 0.02 M phosphate buffer (PBS, pH 7.4) and a 0.02 M hydrochloric buffer (pH 1.3) containing 0.1% (v/v) Cremophor ELP, was used to evaluate chemical stabilities at physiological pHs. The reaction was initiated by adding 1 mL of 10^–4 M stock solution (in acetonitrile) of the compound to 10 mL of thermostated (37 ± 0.5 °C) buffer solution. At established time points, the samples (20 μL) were withdrawn and analyzed by HPLC. Pseudo-first-order rate constants (kobs) for the hydrolysis of the compounds were then calculated considering the slopes of the linear plots of log (% residual compound) against time. The analyses were run in triplicate, and the mean values of the rate constants were calculated.

[3] = 24 h, read-out: IC50, MTT viability test on HREC
[4] = 24 h, read-out: pIC50 ± SE, MTT viability test on HREC (converted)
[5] = 48 h, read-out: IC50, MTT viability test on HREC
[6] = 48 h, read-out: pIC50 ± SE, MTT viability test on HREC (converted)
[7] = 72 h, read-out: IC50, MTT viability test on HREC
[8] = 72 h, read-out: pIC50 ± SE, MTT viability test on HREC (converted)
[9] = Homo sapiens, read-out: IC50 on human 92-1 cells (proliferation, crystal violet), 48 h
[10] = read-out: IC50 on human 92-1 cells (proliferation, crystal violet)

T1 sequence (Q60492 whole entry): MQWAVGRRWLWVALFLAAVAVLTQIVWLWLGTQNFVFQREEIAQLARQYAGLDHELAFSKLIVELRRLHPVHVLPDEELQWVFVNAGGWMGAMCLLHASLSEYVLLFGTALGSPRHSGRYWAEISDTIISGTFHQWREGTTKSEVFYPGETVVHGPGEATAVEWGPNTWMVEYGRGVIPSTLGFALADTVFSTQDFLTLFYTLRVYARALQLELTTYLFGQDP

| SMILES | IC50 (HREC; [3]) [µM] | IC50 (HREC; [4]) [µM] | IC50 (HREC; [5]) [µM] | IC50 (HREC; [6]) [µM] | IC50 (HREC; [7]) [µM] | IC50 (HREC; [8]) [µM] | Ki (σ1 receptor) [µM] | IC50 (human UM 92-1 cells; [9]) [µM] | IC50 (human UM 92-1 cells; [10]) [µM] | Kobs, enzymatic stability [1] [h^–1] | half-life at 3.8 µM [1] [h] | Ki (σ2 receptor) [µM] | effect of PTZ, AC927 or their combination on the antiproliferative effects of the compound in 92-1 cells (human UM 92-1 cells; 5 μM compound, PTZ 2 μM, AC927 2 μM) | antiproliferative effect with respect to VPA alone (human UM 92-1 cells; UM 92-1 cells) | Kobs, chemical stability ([2]; buffer pH 1.3, 37 °C) [h^–1] | Kobs, chemical stability ([2]; buffer pH 7.4, 37 °C) [h^–1] | time the racemate was stable ([2]; buffer solutions at pH 1.3 and 7.4 (both environments)) | half-life at 9.1 µM ([2]; hydrochloric buffer, buffer pH 1.3, 37 °C) [h] | half-life at 9.1 µM ([2]; phosphate buffer, buffer pH 7.4, 37 °C) [h] |
| --- | --- | --- | --- | --- | --- | --- | --- | --- | --- | --- | --- | --- | --- | --- | --- | --- | --- | --- | --- |
| CCCC(CCC)C(=O)O[C@@H](CCCN1CCC(O)(c2ccc(Cl)cc2)CC1)c1ccc(F)cc1 [(−)-1] | 10.1 | 10.7 | 9 | 9.12 | 6.8 | 6.92 | 0.016 ± 0.0017 | 4.45 | 4.4 ± 0.68 | 0.01 ± 0.002 | 70.3 ± 1.5 | 0.056 ± 0.0064 | – | – | – | – | – | – | – |
| CCCC(CCC)C(=O)O[C@H](CCCN1CCC(O)(c2ccc(Cl)cc2)CC1)c1ccc(F)cc1 [(+)-1] | 9.8 | 9.77 | 6.4 | 6.46 | 4.4 | 4.47 | 0.064 ± 0.0082 | 4.95 | 4.9 ± 0.58 | 0.012 ± 0.001 | 58.2 ± 1.2 | 0.074 ± 0.0089 | – | – | – | – | – | – | – |
| CCCC(CCC)C(=O)OC(CCCN1CCC(O)(c2ccc(Cl)cc2)CC1)c1ccc(F)cc1 (racemic) [(±)-1] | – | – | – | – | – | – | – | 5.46 | 5.5 ± 0.74 | 0.011 ± 0.006 | 60.5 ± 0.6 | – | did not perturb | about 400 fold | 0.007 ± 0.001 | 0.007 ± 0.001 | about 4 days | 100 ± 3.1 | 96.4 ± 1.6 |
